Reference: patent US9090535B2, “Hydroxylated tricyclic compounds” (Nektar Therapeutics, priority 2010, dated 2015)
Structures can show the parent of a compound that is named as a salt. Where two headings read alike, the source gives them in different places.

Key:
[1] = target: T1, cloned human hERG channel (Homo sapiens, UniProt Q12809); assay: In vitro effect on hERG channels, whole-cell patch clamp in HEK cells; type: cell-based; settings: 37 °C, read-out: IhERG, 0.1 HZ, IC50
T1 construct: expressed in transfected cells; host or cells: HEK cells
Procedure: Electrophysiological measurements of hERG current were made in vitro to assess the hERG block produced by certain compounds disclosed herein. hERG currents were measured in HEK cells expressing the cloned human hERG channel using the whole-cell variant of the patch clamp method. Experiments were performed at 37±1° C. An Axopatch 1-B amplifier (Axon Instruments, Foster City, Calif.) was used for whole-cell voltage clamping. Creation of voltage clamp pulses and data acquisition was controlled by a PC running pClamp software (version 9.2, Axon Instruments). After rupture of the cell membrane (entering whole-cell mode), current kinetics and amplitudes were allowed to stabilize for 3-5 minutes as the cell was dialyzed with internal solution and paced at 0.1 Hz. Cells were depolarized to +10 mV for 500 ms from a holding potential of −75 mV and peak hERG current was measured as the maximum outward deflection of the tail current elicited upon return to −40 mV (pacing rate=0.1 Hz). Four concentrations of each test compound were added to the cell in a cumulative manner starting with the lowest test concentration. Each cell served as its own control and data are presented as % reduction of current amplitude achieved in the presence of drug.
A nonlinear curve fitting routine was utilized to fit a three-parameter Hill equation to the results using MicroCal Origin, version 6.0 software. The equation was: […]

[2] = target: T2, human norepinephrine transporter (hNET) (Homo sapiens, UniProt P23975); assay: Binding affinity to human norepinephrine transporter (hNET), [3H]Nisoxetine displacement; settings: membranes from MDCK cells expressing hNET, [3H]Nisoxetine 2 nM, read-out: NET binding, Ki
T2 construct: expressed in transfected cells; host or cells: MDCK cells
Procedure: The binding affinities of certain compounds disclosed herein to the hNET were measured using competitive radioligand displacement assays in membranes prepared from MDCK cells that express the human norepinephrine transporter. Competition binding experiments were conducted by incubating hNET membranes with [^3H] Nisoxetine (2 nM), in the presence of increasing concentrations of test compounds. Incubations were carried out at 4° C. for 60 minutes in buffer containing 50 mM Tris HCl, 120 mM NaCl and 5 mM KCl (pH 7.4). The binding reaction was terminated by rapid filtration, membranes were washed and membrane-bound radioactivity was measured using a scintillation counter. Non-specific binding was measured in the presence of excess (10 μM) clomipramine as the unlabelled ligand and this value was subtracted from the total binding to yield the specific binding at each test compound concentration.
IC50 values were obtained from non-linear regression analysis of concentration-versus specific binding plots. Ki values were calculated from the IC50 values using the Cheng Prusoff correction and experimentally determined […] values for the radioligand under these assay conditions.

[3] = tested on: sodium channels (sodium current INa) in rat dorsal root ganglion (DRG) cells; assay: Sodium channel assay, whole-cell patch clamp of sodium current in isolated DRG cells; type: cell-based
Text: The effect of compounds disclosed herein on sodium channels may be evaluated in vitro to determine their blocking properties using the whole-cell patch clamp method in isolated cardiac (human atrial myocytes) and neuronal (rat dorsal root ganglion) cells. The example below refers to a sodium channel assay using neuronal cells.
Electrophysiologic patch clamp recordings of the sodium current in isolated rat dorsal root ganglion (DRG) cells were used to measure the sodium channel blocking properties of certain compounds disclosed herein. DRG cells were isolated according to the method of Blair and Bean (J Neurosci, 22: pp. 10277-10290, 2002) and plated on treated glass coverslips. For measuring the sodium current, cells were perfused with an external solution that consists of (in mmol/L): 115 TMA chloride, 10 NaCl, 5 CsCl, 1.8 CaCl2, 1.2 MgCl2, 10 HEPES, 11 dextrose, pH adjusted to 7.4 with TMA-OH. The chemical composition of the internal solution was (in mmol/L): 115 CsF, 20 CsCl, 10 NaF, 10 HEPES, 5 EGTA; pH adjusted to 7.2 with CsOH. Currents were measured using the whole-cell variant of the patch clamp method (Crumb & Clarkson, Biophysical Journal, 57(3): 589, 1990). An Axopatch 1-B amplifier (Axon Instruments, Foster City, Calif.) was used for whole-cell voltage clamping. Creation of voltage clamp pulses and data acquisition were controlled by a PC running pClamp software (version 9.2, Axon Instruments). INa was elicited by a 40 ms pulse to −20 mV from a holding potential of −65 mV. Pacing rates of 0.1 and 3 Hz were examined. […]. Four concentrations of each test compound were added to the cell in a cumulative manner starting with the lowest test concentration. Each cell served as its own control and data are presented as % reduction of current amplitude achieved in the presence of drug. A nonlinear curve fitting routine was utilized to fit a three-parameter Hill equation to the results using MicroCal Origin, version 6.0 software. The equation was: […]

T2 sequence (P23975 whole entry): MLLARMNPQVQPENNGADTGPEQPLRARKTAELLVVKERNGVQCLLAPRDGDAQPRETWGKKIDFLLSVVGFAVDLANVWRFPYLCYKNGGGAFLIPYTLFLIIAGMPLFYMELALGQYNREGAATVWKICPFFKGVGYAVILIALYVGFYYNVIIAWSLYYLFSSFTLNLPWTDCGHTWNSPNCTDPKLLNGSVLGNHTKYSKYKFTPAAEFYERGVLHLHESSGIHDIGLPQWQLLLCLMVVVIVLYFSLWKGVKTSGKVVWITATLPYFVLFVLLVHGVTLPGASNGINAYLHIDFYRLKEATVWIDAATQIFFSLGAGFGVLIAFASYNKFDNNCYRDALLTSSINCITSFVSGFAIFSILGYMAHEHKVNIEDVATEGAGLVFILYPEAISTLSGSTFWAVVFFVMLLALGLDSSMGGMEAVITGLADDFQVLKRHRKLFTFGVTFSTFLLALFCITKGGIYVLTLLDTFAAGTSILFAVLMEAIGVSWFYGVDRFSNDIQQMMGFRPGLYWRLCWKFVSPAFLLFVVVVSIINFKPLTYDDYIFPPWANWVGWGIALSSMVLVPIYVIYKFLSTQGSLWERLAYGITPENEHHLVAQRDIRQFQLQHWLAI
T1 sequence (Q12809 whole entry): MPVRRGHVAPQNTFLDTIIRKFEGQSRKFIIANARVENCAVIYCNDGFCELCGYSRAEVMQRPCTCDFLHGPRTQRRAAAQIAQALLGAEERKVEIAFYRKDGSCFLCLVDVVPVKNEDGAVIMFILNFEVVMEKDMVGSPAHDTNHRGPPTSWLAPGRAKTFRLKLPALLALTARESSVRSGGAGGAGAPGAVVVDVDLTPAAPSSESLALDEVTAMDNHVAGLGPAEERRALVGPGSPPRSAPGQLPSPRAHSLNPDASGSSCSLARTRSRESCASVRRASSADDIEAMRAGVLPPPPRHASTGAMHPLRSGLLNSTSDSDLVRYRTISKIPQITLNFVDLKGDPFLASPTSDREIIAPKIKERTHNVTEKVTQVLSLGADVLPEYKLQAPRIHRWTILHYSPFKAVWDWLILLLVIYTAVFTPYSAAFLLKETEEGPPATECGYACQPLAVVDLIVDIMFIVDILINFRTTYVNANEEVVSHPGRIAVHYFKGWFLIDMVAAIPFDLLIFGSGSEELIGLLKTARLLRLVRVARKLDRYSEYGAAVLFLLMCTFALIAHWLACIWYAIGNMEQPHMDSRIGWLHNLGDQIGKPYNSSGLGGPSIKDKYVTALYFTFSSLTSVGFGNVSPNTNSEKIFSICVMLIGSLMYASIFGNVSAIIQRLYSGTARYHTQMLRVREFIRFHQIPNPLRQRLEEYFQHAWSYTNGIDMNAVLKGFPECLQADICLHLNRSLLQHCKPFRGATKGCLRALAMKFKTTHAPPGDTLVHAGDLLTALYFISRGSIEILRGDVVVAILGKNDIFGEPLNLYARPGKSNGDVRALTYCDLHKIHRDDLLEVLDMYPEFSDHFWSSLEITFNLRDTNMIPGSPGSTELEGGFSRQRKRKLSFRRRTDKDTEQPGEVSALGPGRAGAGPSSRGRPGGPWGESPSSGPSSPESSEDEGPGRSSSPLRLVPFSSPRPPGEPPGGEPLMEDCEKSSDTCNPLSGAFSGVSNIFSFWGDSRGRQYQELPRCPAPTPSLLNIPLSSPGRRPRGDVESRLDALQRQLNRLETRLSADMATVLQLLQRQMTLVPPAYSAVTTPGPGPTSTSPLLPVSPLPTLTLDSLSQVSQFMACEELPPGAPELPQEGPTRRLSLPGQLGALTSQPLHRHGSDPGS

Molecule	Ki ([2]; Table 2) [µM]	Ki ([2]; Table 3) [µM]	IC50 ([1]; Table 2, pacing rate 0.1 Hz) [µM]	IC50 ([3]; Table 2, pacing rate 3 Hz) [µM]	IC50 ([1]; Table 3, pacing rate 0.1 Hz) [µM]	further results
COCCO[C@@H]1Cc2ccccc2/C(=C\CCN(C)C)c2ccccc21 [(R)-5-(3-dimethylamino-propylidene)-10-OmPEG1-10,11-dihydro-5H-dibenzo[a,d]cyclohept-E-ene trifluoroacetate salt]	4.45	–	12.1	–	–	–
COCCOCCOCCOCCO[C@@H]1Cc2ccccc2/C(=C\CCN(C)C)c2ccccc21 [(R)-5-(3-dimethylamino-propylidene)-10-OmPEG4-10,11-dihydro-5H-dibenzo[a,d]cyclohept-E-ene trifluoroacetate salt]	28.1	–	39.9	21.3	–	–
COCCOCCOCCOCCOCCOCCO[C@@H]1Cc2ccccc2/C(=C/CCN(C)C)c2ccccc21 [(R)-5-(3-dimethylamino-propylidene)-10-OmPEG6-10,11-dihydro-5H-dibenzo[a,d]cyclohept-Z-ene trifluoroacetate salt]	–	31.3	–	–	18.9	–
COCCOCCOCCOCCOCCOCCOCCOCCOc1ccc2c(c1)CCc1ccccc1/C2=C\CCN(C)C [5-(3-Dimethylamino-propylidene)-10,11-dihydro-5H-dibenzo[a,d]cyclohept-E-en-2-OmPEG8 hydrochloride salt]	–	–	–	–	–	IC50 ([1]; Table 1, pacing rate 0.1 Hz): 2.2 µM; IC50 ([3]; Table 1, pacing rate 3 Hz): 23.4 µM; Ki ([2]; Table 1): 62.9 µM
COCCOCCOCCOCCOc1ccc2c(c1)CCc1ccccc1/C2=C\CCN(C)C [5-(3-Dimethylamino-propylidene)-10,11-dihydro-5H-dibenzo[a,d]cyclohept-E-en-2-OmPEG4 hydrochloride salt]	–	–	–	–	–	IC50 ([1]; Table 1, pacing rate 0.1 Hz): 5.8 µM; IC50 ([3]; Table 1, pacing rate 3 Hz): 6.8 µM; Ki ([2]; Table 1): 60.8 µM
COCCOCCOCCOCCO[C@@H]1Cc2ccccc2/C(=C/CCN(C)C)c2ccccc21 [(R)-5-(3-dimethylamino-propylidene)-10-OmPEG4-10,11-dihydro-5H-dibenzo[a,d]cyclohept-Z-ene trifluoroacetate salt]	–	30.6	–	–	21.5	–
COCCOCCO[C@@H]1Cc2ccccc2/C(=C\CCN(C)C)c2ccccc21 [(R)-5-(3-dimethylamino-propylidene)-10-OmPEG2-10,11-dihydro-5H-dibenzo[a,d]cyclohept-E-ene trifluoroacetate salt]	49.1	–	14	–	–	–
COCCOCCOCCOCCOCCOCCOCCOCCOc1ccc2c(c1)CCc1ccccc1/C2=C/CCN(C)C [5-(3-Dimethylamino-propylidene)-10,11-dihydro-5H-dibenzo[a,d]cyclohept-Z-en-2-OmPEG8 hydrochloride salt]	–	–	–	–	–	IC50 ([1]; Table 1, pacing rate 0.1 Hz): 26.4 µM; IC50 ([3]; Table 1, pacing rate 3 Hz): 16.9 µM; Ki ([2]; Table 1): 646 µM
CN(C)CCC=C1c2ccccc2CCc2ccccc21 [Amitriptyline, reference compound]	–	–	–	7.1	–	IC50 ([3]; Table 1, pacing rate 3 Hz): 7.1 µM
COCCOCCOCCOCCOCCOCCOCCOCCO[C@@H]1Cc2ccccc2/C(=C\CCN(C)C)c2ccccc21 [(R)-5-(3-dimethylamino-propylidene)-10-OmPEG8-10,11-dihydro-5H-dibenzo[a,d]cyclohept-E-ene trifluoroacetate salt]	13.5	–	55.9	21.2	–	–
5-(3-Dimethylamino-propylidene)-10,11-dihydro-5H-dibenzo[a,d]cyclohept-E-en-2-OmPEG6 hydrochloride salt	–	–	–	–	–	IC50 ([1]; Table 1, pacing rate 0.1 Hz): 61.5 µM; IC50 ([3]; Table 1, pacing rate 3 Hz): 16.3 µM; Ki ([2]; Table 1): 35.5 µM
CN(C)CC/C=C1\c2ccccc2C[C@@H](O)c2ccccc21 [(R)-5-(3-dimethylamino-propylidene)-10,11-dihydro-5H-dibenzo[a,d]cyclohept-E-en-10-ol, reference compound]	2.53	–	18	6.2	–	–
COCCOCCOCCOCCOCCOCCOCCOCCO[C@@H]1Cc2ccccc2/C(=C/CCN(C)C)c2ccccc21 [(R)-5-(3-dimethylamino-propylidene)-10-OmPEG8-10,11-dihydro-5H-dibenzo[a,d]cyclohept-Z-ene trifluoroacetate salt]	–	4.37	–	–	> 100	–
CN(C)CC/C=C1\c2ccccc2CCc2cc(O)ccc21 [(E)-5-(3-(dimethylamino)propylidene)-10,11-dihydro-5H-dibenzo[a,d][7]annulen-2-ol, reference compound]	–	–	–	–	–	Ki ([2]; Table 1): 0.16 µM
CN(C)CC/C=C1/c2ccccc2CCc2cc(O)ccc21 [(Z)-5-(3-(dimethylamino)propylidene)-10,11-dihydro-5H-dibenzo[a,d][7]annulen-2-ol, reference compound]	–	–	–	–	–	IC50 ([1]; Table 1, pacing rate 0.1 Hz): 1.6 µM; IC50 ([3]; Table 1, pacing rate 3 Hz): 14.9 µM; Ki ([2]; Table 1): 0.5 µM
CN(C)CC/C=C1/c2ccccc2C[C@@H](O)c2ccccc21 [(R)-5-(3-dimethylamino-propylidene)-10,11-dihydro-5H-dibenzo[a,d]cyclohept-Z-en-10-ol, reference compound]	–	6.28	–	–	4.1	–

Second part, led by results:

Ki ([2]; Table 2) [µM]	Ki ([2]; Table 3) [µM]	Molecule	IC50 ([1]; Table 2, pacing rate 0.1 Hz) [µM]	IC50 ([3]; Table 2, pacing rate 3 Hz) [µM]	IC50 ([1]; Table 3, pacing rate 0.1 Hz) [µM]	further results
–	2.99	COCCOCCOCCOCCOCCOCCOCCOCCO[C@H]1Cc2ccccc2/C(=C/CCN(C)C)c2ccccc21 [(S)-5-(3-dimethylamino-propylidene)-10-OmPEG8-10,11-dihydro-5H-dibenzo[a,d]cyclohept-Z-ene trifluoroacetate salt]	–	–	32.8	–
–	22.1	COCCOCCOCCOCCOCCOCCO[C@H]1Cc2ccccc2/C(=C/CCN(C)C)c2ccccc21 [(S)-5-(3-dimethylamino-propylidene)-10-OmPEG6-10,11-dihydro-5H-dibenzo[a,d]cyclohept-Z-ene trifluoroacetate salt]	–	–	38.3	–
–	0.97	CN(C)CC/C=C1/c2ccccc2C[C@H](O)c2ccccc21 [(S)-5-(3-Dimethylamino-propylidene)-10,11-dihydro-5H-dibenzo[a,d]cyclohept-Z-en-10-ol, reference compound]	–	–	7.2	–
–	27.4	COCCOCCOCCOCCO[C@H]1Cc2ccccc2/C(=C/CCN(C)C)c2ccccc21 [(S)-5-(3-dimethylamino-propylidene)-10-OmPEG4-10,11-dihydro-5H-dibenzo[a,d]cyclohept-Z-ene trifluoroacetate salt]	–	–	11.5	–
14.2	–	COCCOCCOCCOCCOCCOCCO[C@H]1Cc2ccccc2/C(=C\CCN(C)C)c2ccccc21 [(S)-5-(3-dimethylamino-propylidene)-10-OmPEG6-10,11-dihydro-5H-dibenzo[a,d]cyclohept-E-ene trifluoroacetate salt]	36	8.5	–	–
0.34	–	CN(C)CC/C=C1\c2ccccc2C[C@H](O)c2ccccc21 [(S)-5-(3-Dimethylamino-propylidene)-10,11-dihydro-5H-dibenzo[a,d]cyclohept-E-en-10-ol, reference compound]	23.2	16.6	–	–
14	–	COCCOCCOCCOCCOCCOCCOCCOCCO[C@H]1Cc2ccccc2/C(=C\CCN(C)C)c2ccccc21 [(S)-5-(3-dimethylamino-propylidene)-10-OmPEG8-10,11-dihydro-5H-dibenzo[a,d]cyclohept-E-ene trifluoroacetate salt]	> 100	71.6	–	–
